System: gene expression in D04 melanoma cells
Experiment: RNA-Seq differential expression analysis (DESeq2)
Type: cell-based, human
Details: up-regulated list
Procedure: Total RNA was isolated using the RNeasy mini Kit (QIAGEN) following the manufacturer's protocol. Quality check for extracted RNA was done using 2100 Bioanalyzer (Agilent Technologies, USA) or Tapestation System (Agilent Technologies, USA). […] For samples used for identification of MAPK-responsive lncRNAs, paired-end, 101-bp sequencing was performed by Centrillion Genomic Services (Centrillion Biosciences, USA) on an Illumina HiSeq 2000. For DE gene analysis of ASO-transfected D04 samples, paired-end, 2×150-bp sequencing was performed by Genewiz (USA) on a Illumina HiSeq.
Sequence reads were aligned to the human genome (hg19) using TopHat (Version 2.0.11).
Differential expression (DE) analysis was done using DESeq2. Differentially expressed genes were defined by more than 1.5-fold changes (log 2 >0.58 or <−0.58) in expression with FDR<0.05. GO term analysis was done using DAVID Functional Annotation Clustering analysis.
To examine the biomolecular changes upon TRASH-inhibition in melanoma, D04 cells were treated with TRASH-ASOs (SEQ ID NO:15) and Control-ASOs and RNA was extracted and used for RNA-Seq. […] These GO terms consisted of genes encoding growth factors, tyrosine kinases, G protein coupled receptor subunits, and collagen subunits. Scatter plot diagram showing differential gene expression after TRASH-ASO treatment compared to Control-ASO treatment. (cut-off for significance was adjusted p-value <0.05). Data was obtained from RNA-Seq of D04 melanoma cells, treatment period was three days. (FIG. 5c)

Q: Which “log2FoldChange HIST3H2A” value (ENSG00000181218) does the source give for “GACTGGAGATAATTAA (gapmer, pattern not given here) [SEQ ID NO: 15, GapmeR ASO targeting AC004540.4 (TRASH), exon region of both isoforms; used for in vitro experiments]” here?
A: 0.6762

Q: What about the “log2FoldChange GPR3” value (ENSG00000181773) of the same sequence?
A: 0.5989

Q: What about the “log2FoldChange IBA57” value (ENSG00000181873) of the same sequence?
A: 0.6496

Q: And the “log2FoldChange KCNJ14” value (ENSG00000182324)?
A: 0.8416

Q: What about the “log2FoldChange MEX3B” value (ENSG00000183496) of the same sequence?
A: 0.7229

Q: And the “log2FoldChange SLC35F3” value (ENSG00000183780)?
A: 0.8791

Q: And the “log2FoldChange TXNRD2” value (ENSG00000184470)?
A: 0.5869

Q: What about the “log2FoldChange OSBP2” value (ENSG00000184792) of the same sequence?
A: 1.106

Q: What about the “log2FoldChange SDR42E1” value (ENSG00000184860) of the same sequence?
A: 0.9762

Q: And the “log2FoldChange MAFF” value (ENSG00000185022)?
A: 0.6847

Q: And the “log2FoldChange SOCS1” value (ENSG00000185338)?
A: 0.6402

Q: And the “log2FoldChange PMEL” value (ENSG00000185664)?
A: 0.9831

Q: What about the “log2FoldChange MYBL1” value (ENSG00000185697) of the same sequence?
A: 0.6266

Q: And the “log2FoldChange PCLO” value (ENSG00000186472)?
A: 0.6974

Q: What about the “log2FoldChange MT1X” value (ENSG00000187193) of the same sequence?
A: 0.7581

Q: What about the “log2FoldChange MAGEH1” value (ENSG00000187601) of the same sequence?
A: 0.7858

Q: What about the “log2FoldChange ZFP69B” value (ENSG00000187801) of the same sequence?
A: 0.7093

Q: And the “log2FoldChange ZP3” value (ENSG00000188372)?
A: 0.8099

Q: What about the “log2FoldChange C22orf34” value (ENSG00000188511) of the same sequence?
A: 0.661

Q: What about the “log2FoldChange GJB3” value (ENSG00000188910) of the same sequence?
A: 1.136

Q: What about the “log2FoldChange GJB5” value (ENSG00000189280) of the same sequence?
A: 1.088

Q: What about the “log2FoldChange SH2D5” value (ENSG00000189410) of the same sequence?
A: 1.08

Q: What about the “log2FoldChange PLEKHG4” value (ENSG00000196155) of the same sequence?
A: 0.6321

Q: What about the “log2FoldChange CD55” value (ENSG00000196352) of the same sequence?
A: 0.645

Q: And the “log2FoldChange NUDT11” value (ENSG00000196368)?
A: 0.6654

Q: What about the “log2FoldChange AC009022.1” value (ENSG00000196696) of the same sequence?
A: 0.6881

Q: What about the “log2FoldChange S100A2” value (ENSG00000196754) of the same sequence?
A: 0.5809

Q: What about the “log2FoldChange SLC6A17” value (ENSG00000197106) of the same sequence?
A: 1.129

Q: What about the “log2FoldChange ZNF860” value (ENSG00000197385) of the same sequence?
A: 0.5877

Q: What about the “log2FoldChange VEPH1” value (ENSG00000197415) of the same sequence?
A: 0.5803

Q: What about the “log2FoldChange ZNF841” value (ENSG00000197608) of the same sequence?
A: 0.6523

Q: What about the “log2FoldChange SERPINB2” value (ENSG00000197632) of the same sequence?
A: 0.8127

Q: What about the “log2FoldChange PDCD1LG2” value (ENSG00000197646) of the same sequence?
A: 1.192

Q: What about the “log2FoldChange FAM49A” value (ENSG00000197872) of the same sequence?
A: 0.7378

Q: And the “log2FoldChange HRNR” value (ENSG00000197915)?
A: 0.6084

Q: And the “log2FoldChange CSF2RA” value (ENSG00000198223)?
A: 1.103

Q: What about the “log2FoldChange CD247” value (ENSG00000198821) of the same sequence?
A: 1.07

Q: And the “log2FoldChange HSD3BP5” value (ENSG00000198857)?
A: 0.8606

Q: What about the “log2FoldChange LINC01291” value (ENSG00000204792) of the same sequence?
A: 0.9824

Q: What about the “log2FoldChange KRT81” value (ENSG00000205426) of the same sequence?
A: 0.8139

Q: What about the “log2FoldChange TRBC2” value (ENSG00000211772) of the same sequence?
A: 0.6815

Q: And the “log2FoldChange ANG” value (ENSG00000214274)?
A: 1.047

Q: What about the “log2FoldChange FER1L6” value (ENSG00000214814) of the same sequence?
A: 0.6181

Q: And the “log2FoldChange UBE2QL1” value (ENSG00000215218)?
A: 0.6007

Q: And the “log2FoldChange PLXNA4” value (ENSG00000221866)?
A: 1.101

Q: And the “log2FoldChange RNU2-63P” value (ENSG00000222724)?
A: 0.6055

Q: What about the “log2FoldChange ROR1-AS1” value (ENSG00000223949) of the same sequence?
A: 0.9732

Q: What about the “log2FoldChange ZMIZ1-AS1” value (ENSG00000224596) of the same sequence?
A: 0.9113

Q: What about the “log2FoldChange AC017002.1” value (ENSG00000224959) of the same sequence?
A: 0.6679

Q: What about the “log2FoldChange AL354740.1” value (ENSG00000225339) of the same sequence?
A: 0.7567

Q: And the “log2FoldChange CFLAR-AS1” value (ENSG00000226312)?
A: 0.8124

Q: And the “log2FoldChange AC016831.1” value (ENSG00000226380)?
A: 0.8375

Q: What about the “log2FoldChange ERVMER34-1” value (ENSG00000226887) of the same sequence?
A: 0.9222

Q: What about the “log2FoldChange AC020571.1” value (ENSG00000229056) of the same sequence?
A: 0.6243

Q: What about the “log2FoldChange AL589880.1” value (ENSG00000229939) of the same sequence?
A: 0.6572

Q: What about the “log2FoldChange AL590666.2” value (ENSG00000229953) of the same sequence?
A: 0.9636

Q: What about the “log2FoldChange LINC01293” value (ENSG00000230836) of the same sequence?
A: 1.066

Q: What about the “log2FoldChange LINC00704” value (ENSG00000231298) of the same sequence?
A: 0.7366

Q: And the “log2FoldChange AL603650.1” value (ENSG00000232355)?
A: 1.015

Q: And the “log2FoldChange LINC02535” value (ENSG00000234155)?
A: 1.054

Q: What about the “log2FoldChange PINLYP” value (ENSG00000234465) of the same sequence?
A: 0.7137

Q: And the “log2FoldChange RPL13AP20” value (ENSG00000234498)?
A: 1.162

Q: What about the “log2FoldChange C19orf81” value (ENSG00000235034) of the same sequence?
A: 0.9948

Q: And the “log2FoldChange LINC00941” value (ENSG00000235884)?
A: 0.9292

Q: What about the “log2FoldChange PNMA6A” value (ENSG00000235961) of the same sequence?
A: 0.8869

Q: What about the “log2FoldChange AL354719.2” value (ENSG00000236345) of the same sequence?
A: 1.16

Q: What about the “log2FoldChange GGT8P” value (ENSG00000236969) of the same sequence?
A: 1.181

Q: And the “log2FoldChange AL138828.1” value (ENSG00000237596)?
A: 1.06

Q: And the “log2FoldChange OXCT2P1” value (ENSG00000237624)?
A: 1.01

Q: And the “log2FoldChange SPATA3-AS1” value (ENSG00000238062)?
A: 1.082

Q: What about the “log2FoldChange AC026250.1” value (ENSG00000245522) of the same sequence?
A: 0.9507

Q: And the “log2FoldChange SBF2-AS1” value (ENSG00000246273)?
A: 0.9574

Q: And the “log2FoldChange AC104066.1” value (ENSG00000248375)?
A: 0.8941

Q: And the “log2FoldChange LINC02021” value (ENSG00000249846)?
A: 1.04

Q: What about the “log2FoldChange AC091173.1” value (ENSG00000251127) of the same sequence?
A: 1.149

Q: What about the “log2FoldChange SMG1P6” value (ENSG00000254634) of the same sequence?
A: 1.045

Q: What about the “log2FoldChange ZNF10” value (ENSG00000256223) of the same sequence?
A: 0.6255

Q: What about the “log2FoldChange C17orf100” value (ENSG00000256806) of the same sequence?
A: 0.644

Q: What about the “log2FoldChange AC073611.1” value (ENSG00000257605) of the same sequence?
A: 0.6207

Q: What about the “log2FoldChange LINC01579” value (ENSG00000258754) of the same sequence?
A: 0.7555

Q: And the “log2FoldChange AC013652.1” value (ENSG00000259345)?
A: 0.6859

Q: And the “log2FoldChange AC011468.1” value (ENSG00000260160)?
A: 0.8721

Q: What about the “log2FoldChange LINC02170” value (ENSG00000260896) of the same sequence?
A: 0.7455

Q: What about the “log2FoldChange LINC00622” value (ENSG00000260941) of the same sequence?
A: 0.6079

Q: And the “log2FoldChange EPPK1” value (ENSG00000261150)?
A: 0.7148

Q: And the “log2FoldChange LINC01029” value (ENSG00000265843)?
A: 0.6081

Q: What about the “log2FoldChange PCAT19” value (ENSG00000267107) of the same sequence?
A: 1.193
